Reference: patent publication US4737510A, “Bioactive metabolites from the caribbean sponge agelas coniferin” (priority 1986, dated 1988)
Read-outs that look alike come from different tables or passages of the source.

Tests used:
[1] = test system: Monkey Kidney Cells (CV-1); assay: Cytotoxicity to monkey kidney cells (CV-1) determined by Dr. R. G. Hughes, Jr.; conditions: 8 or less essentially indicates noncytotoxicity
[2] = test system: Herpes simplex virus, type I (HSV-1); assay: microbe, parasite or virus in culture; assay type: cell-based; conditions: for zone of inhibition at 20 µg/disc / zone of inhibition at 50 µg/disc / zone of inhibition at 100 µg/disc / zone of inhibition at 200 µg/disc: Human alphaherpesvirus 1, in Primates
Bacillus subtilis = assay: Disc diffusion antimicrobial assay, Bacillus subtilis; assay type: cell-based; conditions: Bacillus subtilis, 6.5 mm disc, read-out: diameter of the clear zone of inhibition; for zone of inhibition at 10 µg/disc: 10 μg/disk; for zone of inhibition at 50 µg/disc: 50 μg/disk; for zone of inhibition at 100 µg/disc: 100 μg/disk
[3] = test system: Herpes Simplex Virus type 1 (HSV-1); assay: Antiviral activity against HSV-1 determined by Dr. R. G. Hughes, Jr.;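 also: grades: +++ strong ++ moderate + light ± questionable - negative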; assay type: cell-based
E. coli strain BR339 = assay type: cell-based
[4] = test system: vesicular stomatitis virus (VSV); assay: microbe, parasite or virus in culture; assay type: cell-based; conditions: for zone of inhibition at 20 µg/disc / zone of inhibition at 50 µg/disc / zone of inhibition at 100 µg/disc / zone of inhibition at 200 µg/disc: Vesicular stomatitis virus, in Primates
Escherichia coli = assay: Disc diffusion antimicrobial assay, Escherichia coli; assay type: cell-based; conditions: for zone of inhibition at 10 µg/disc / zone of inhibition at 50 µg/disc / zone of inhibition at 100 µg/disc: Escherichia coli, 6.5 mm disc, read-out: diameter of the clear zone of inhibition; for zone of inhibition at 10 µg/disc: 10 μg/disk; for zone of inhibition at 50 µg/disc: 50 μg/disk
[5] = test system: monkey kidney (CV-1) cells; assay: Cytotoxicity to monkey kidney (CV-1) cells
[6] = Stability of isolated solids; assay type: physicochemical; conditions: diacetate salts, amorphous solids
[7] = test system: vesicular stomatitus virus (VSV); assay type: cell-based; conditions: 100 μg/disk
[8] = Water solubility (in words); assay type: physicochemical; conditions: relative to 1a-6a
serotonergic receptor = conditions: cited from earlier work
KB carcinoma = conditions: cited from earlier work
[9] = read-out: antiviral activity, HSV-1, ++ scale
[10] = read-out: antiviral activity, HSV-1, zone diameter
[11] = read-out: antiviral activity, VSV, ++ scale
[12] = read-out: antiviral activity, VSV, zone diameter

Nc1ncc(C2c3nc(N)[nH]c3CC(CNC(=O)c3cc(Br)c(Br)[nH]3)C2CNC(=O)c2cc(Br)c(Br)[nH]2)[nH]1 (stereo not shown) [Compound 6a, Dibromoageliferin Acetate]
cytotoxicity, zone diameter ([1]; 25 μg/disk): 6 mm | cytotoxicity, zone diameter ([1]; 50 μg/disk): 8 mm | cytotoxicity, zone diameter ([1]; 100 μg/disk): 10 mm | zone of inhibition at 20 µg/disc [2, 9]: 8 to 10 mm | zone of inhibition at 50 µg/disc [2, 9]: 11 to 15 mm | zone of inhibition at 100 µg/disc [2, 9]: 11 to 15 mm | zone of inhibition at 200 µg/disc [2, 9]: 11 to 15 mm | zone of inhibition at 20 µg/disc [2, 10]: 9 mm | zone of inhibition at 50 µg/disc [2, 10]: 11 mm | zone of inhibition at 100 µg/disc [2, 10]: 11 mm | zone of inhibition at 200 µg/disc [2, 10]: 12 mm | zone of inhibition at 10 µg/disc (Bacillus subtilis): 8 mm | zone of inhibition at 50 µg/disc (Bacillus subtilis): 9 mm | zone of inhibition at 100 µg/disc (Bacillus subtilis): 9 mm | HSV-1 activity ([3]; 25 μg/disk): - | HSV-1 activity ([3]; 50 μg/disk): ± | HSV-1 activity ([3]; 100 μg/disk): ± | BIA activity, numerical color intensity scale 0-10 (E. coli strain BR339): 2 | zone of inhibition at 20 µg/disc [4, 11]: < 7 mm | zone of inhibition at 50 µg/disc [4, 11]: 8 to 10 mm | zone of inhibition at 100 µg/disc [4, 11]: 8 to 10 mm | zone of inhibition at 200 µg/disc [4, 11]: 8 to 10 mm | zone of inhibition at 20 µg/disc [4, 12]: 0 mm | zone of inhibition at 50 µg/disc [4, 12]: 8 mm | zone of inhibition at 100 µg/disc [4, 12]: 9 mm | zone of inhibition at 200 µg/disc [4, 12]: 10 mm | zone of inhibition at 10 µg/disc (Escherichia coli): 0 mm | zone of inhibition at 50 µg/disc (Escherichia coli): 7 mm | zone of inhibition at 100 µg/disc (Escherichia coli; 100 μg/disk): 7 mm | traces of cytotoxicity, zone ([5]; all concentrations (200, 100, 50, 20 μg/disk)): ≤ 8 mm

NC1=NC(=O)C(C2C(CNC(=O)c3ccc[nH]3)C(CNC(=O)c3cc(Br)c[nH]3)C2c2cnc(N)[nH]2)N1 (stereo not shown) [Compound 7a, Debromooxysceptrin Acetate]
stability [6]: stable | cytotoxicity, zone diameter ([1]; 25 μg/disk): 5 mm | cytotoxicity, zone diameter ([1]; 50 μg/disk): 5 mm | cytotoxicity, zone diameter ([1]; 100 μg/disk): 6 mm | activity against HSV-1 [2]: essentially inactive | antiviral zone appearance [2]: diffuse zones | zone of inhibition at 20 µg/disc [2, 9]: < 7 mm | zone of inhibition at 50 µg/disc [2, 9]: < 7 mm | zone of inhibition at 100 µg/disc [2, 9]: < 7 mm | zone of inhibition at 200 µg/disc [2, 9]: 8 to 10 mm | zone of inhibition at 20 µg/disc [2, 10]: 0 mm | zone of inhibition at 50 µg/disc [2, 10]: 0 mm | zone of inhibition at 100 µg/disc [2, 10]: 0 mm | VSV activity [7]: ± | water solubility [8]: more water soluble | zone of inhibition at 10 µg/disc (Bacillus subtilis): 0 mm | zone of inhibition at 50 µg/disc (Bacillus subtilis): 7 mm | zone of inhibition at 100 µg/disc (Bacillus subtilis): 8 mm | HSV-1 activity ([3]; 25 μg/disk): - | HSV-1 activity ([3]; 50 μg/disk): - | HSV-1 activity ([3]; 100 μg/disk): - | BIA activity (E. coli strain BR339): somewhat less active | BIA activity, numerical color intensity scale 0-10 (E. coli strain BR339): 4 | BIA zone appearance (E. coli strain BR339): more diffuse zone | activity against VSV ([4]; 200 μg/disk): essentially inactive | zone of inhibition at 200 µg/disc [4, 11]: < 7 mm | zone of inhibition at 200 µg/disc [4, 12]: 0 mm | activity against Escherichia coli (Escherichia coli; 100 μg/disk): inactive | zone of inhibition at 10 µg/disc (Escherichia coli): 0 mm | zone of inhibition at 50 µg/disc (Escherichia coli): 0 mm | zone of inhibition at 100 µg/disc (Escherichia coli; 100 μg/disk): 0 mm | traces of cytotoxicity, zone ([5]; 200 μg/disk): ≤ 8 mm

Cn1c(/C=C\CNC(=O)c2cc(Br)c[nH]2)cnc1N [Keramidine]
serotonergic receptor activity (serotonergic receptor): serotonergic receptor antagonist

N=C(N)NC(=O)c1cc(Br)c[nH]1 [N-amidino-4-bromopyrrole-2-carboxamide]
effect on KB carcinoma (KB carcinoma): KB carcinoma-altering
